Data as given in publication PMC8035703, “Effect of Synchronous Versus Sequential Regimens on the Pharmacokinetics and Biodistribution of Regorafenib with Irradiation” (Pharmaceutics, 2021).
Like-named read-outs stand apart in the source and are kept apart here.

Assays:
[1] = Organ distribution of regorafenib in rats with or without RT; type: in vivo, Sprague-Dawley rats; conditions: for concentration at 4 h: male, Sprague-Dawley, 16 mg/kg, 4 h after oral administration
Method: According to the formula used to translate doses from animal to human, human equivalent dose (HED, mg/kg) = animal dose (mg/kg) × animal km/human km, we calculated the daily dose of regorafenib for rats to be 16 (mg/kg/day). The rats were randomly divided into ten groups with six rats in each group. The concurrent groups treated with regorafenib 1 h after RT, in the same day, to mimic regorafenib concurrent with RT in the daily practice. The sequential groups treated with regorafenib following RT (not in the same day), to mimic RT followed by regorafenib in the daily practice. The one fraction study group included (A) a sham group, regorafenib with RT0 Gy (regorafenib × 1 d); concurrent groups treated with regorafenib 1 h after (B) RT2 Gy with 1 fraction (RT2 Gy × 1 f’x) and (D) RT9 Gy with 1 fraction (RT9 Gy × 1 f’x); and sequential groups treated with regorafenib 24 h after (C) RT2 Gy × 1 f’x and (E) RT9 Gy × 1 f’x. Continued treatment mimicking clinical practice was applied to (A) a sham group, regorafenib (p.o. (per os), q.d. × 3 d) with RT0 Gy (regorafenib × 3 d); concurrent groups treated with regorafenib (p.o., q.d. × 3 d) 1 h after (B) RT2 Gy with 3 fractions (RT2 Gy × 3 f’x) and (D) RT9 Gy with 3 fractions (RT9Gy × 3 f’x); and sequential groups treated with regorafenib 24 h (p.o., q.d. × 3 d) after (C) RT2 Gy × 3 f’x and (E) RT9 Gy × 3 f’x. (Figure 1A,B).
Organs, including the brain, liver, heart, spleen, lung and kidney, were collected, weighed and stored at −20 °C, until analysis.
The organ samples were homogenized in 50% aqueous acetonitrile (sample weight: volume = 1:5) and centrifuged at 13,000× g, for 10 min, at 4 °C. The supernatant was stored at −20 °C, until analysis. Additionally, 150 μL of IS solution (diethylstilbestrol) was combined with each organ sample (50 μL) for protein precipitation. Finally, the filtrate (20 μL) was analyzed by HPLC.

Huh-7 cells = test: Apoptosis assay (Annexin-V FITC / PI); type: cell-based, human
Description: Annexin-V FITC and propidium iodide (PI) (BD Bioscience Pharmingen (San Diego, CA, USA)) were used to identify apoptotic cells by FACScan. Cells that were positive for Annexin V and negative for PI were defined as early apoptotic cells. Cells that were positive for both Annexin V and PI were defined as late apoptotic cells.

concentration at 4 h ([1]; rat, brain, po, rat, 16 mg/kg p.o. × 3 d, no RT, read-out: Concentration in brain): 10 ± 20 ng/g
concentration at 4 h ([1]; rat, heart, oral, rat, RT2 Gy × 1 f'x with regorafenib 16 mg/kg × 1 d (concurrent), read-out: Concentration in heart): 290 ± 170 ng/g
concentration at 4 h ([1]; rat, heart, oral, rat, RT9 Gy × 1 f'x followed by regorafenib 16 mg/kg × 1 d (sequential), read-out: Concentration in heart): 870 ± 140 ng/g
concentration at 4 h ([1]; rat, heart, oral, rat, RT9 Gy × 3 f'x followed by regorafenib 16 mg/kg × 3 d (sequential), read-out: Concentration in heart): 170 ± 270 ng/g
concentration at 4 h ([1]; rat, heart, oral, rat, RT9 Gy × 3 f'x with regorafenib 16 mg/kg × 3 d (concurrent), read-out: Concentration in heart): 90 ± 70 ng/g
concentration at 4 h ([1]; rat, heart, po, rat, 16 mg/kg p.o. × 1 d, no RT, read-out: Concentration in heart): 450 ± 310 ng/g
concentration at 4 h ([1]; rat, heart, po, rat, 16 mg/kg p.o. × 3 d, no RT, read-out: Concentration in heart): 250 ± 100 ng/g
concentration at 4 h ([1]; rat, kidney, oral, rat, RT2 Gy × 1 f'x with regorafenib 16 mg/kg × 1 d (concurrent), read-out: Concentration in kidneys): 210 ± 110 ng/g
concentration at 4 h ([1]; rat, kidney, oral, rat, RT9 Gy × 1 f'x followed by regorafenib 16 mg/kg × 1 d (sequential), read-out: Concentration in kidneys): 590 ± 340 ng/g
concentration at 4 h ([1]; rat, kidney, oral, rat, RT9 Gy × 3 f'x followed by regorafenib 16 mg/kg × 3 d (sequential), read-out: Concentration in kidneys): 400 ± 430 ng/g
concentration at 4 h ([1]; rat, kidney, oral, rat, RT9 Gy × 3 f'x with regorafenib 16 mg/kg × 3 d (concurrent), read-out: Concentration in kidneys): 170 ± 120 ng/g
concentration at 4 h ([1]; rat, kidney, po, rat, 16 mg/kg p.o. × 1 d, no RT, read-out: Concentration in kidneys): 340 ± 190 ng/g
concentration at 4 h ([1]; rat, kidney, po, rat, 16 mg/kg p.o. × 3 d, no RT, read-out: Concentration in kidneys): 650 ± 250 ng/g
concentration at 4 h ([1]; rat, liver, oral, rat, RT2 Gy × 1 f'x with regorafenib 16 mg/kg × 1 d (concurrent), read-out: Concentration in liver): 1100 ± 510 ng/g
concentration at 4 h ([1]; rat, liver, oral, rat, RT9 Gy × 1 f'x followed by regorafenib 16 mg/kg × 1 d (sequential), read-out: Concentration in liver): 2390 ± 1200 ng/g
concentration at 4 h ([1]; rat, liver, oral, rat, RT9 Gy × 3 f'x followed by regorafenib 16 mg/kg × 3 d (sequential), read-out: Concentration in liver): 1160 ± 1120 ng/g
concentration at 4 h ([1]; rat, liver, oral, rat, RT9 Gy × 3 f'x with regorafenib 16 mg/kg × 3 d (concurrent), read-out: Concentration in liver): 700 ± 290 ng/g
concentration at 4 h ([1]; rat, liver, po, rat, 16 mg/kg p.o. × 1 d, no RT, read-out: Concentration in liver): 1460 ± 340 ng/g
concentration at 4 h ([1]; rat, liver, po, rat, 16 mg/kg p.o. × 3 d, no RT, read-out: Concentration in liver): 1450 ± 740 ng/g
concentration at 4 h ([1]; rat, lung, oral, rat, RT2 Gy × 1 f'x with regorafenib 16 mg/kg × 1 d (concurrent), read-out: Concentration in lung): 290 ± 190 ng/g
concentration at 4 h ([1]; rat, lung, oral, rat, RT9 Gy × 1 f'x followed by regorafenib 16 mg/kg × 1 d (sequential), read-out: Concentration in lung): 1010 ± 700 ng/g
concentration at 4 h ([1]; rat, lung, oral, rat, RT9 Gy × 3 f'x followed by regorafenib 16 mg/kg × 3 d (sequential), read-out: Concentration in lung): 370 ± 230 ng/g
concentration at 4 h ([1]; rat, lung, oral, rat, RT9 Gy × 3 f'x with regorafenib 16 mg/kg × 3 d (concurrent), read-out: Concentration in lung): 250 ± 180 ng/g
concentration at 4 h ([1]; rat, lung, po, rat, 16 mg/kg p.o. × 1 d, no RT, read-out: Concentration in lung): 470 ± 180 ng/g
concentration at 4 h ([1]; rat, lung, po, rat, 16 mg/kg p.o. × 3 d, no RT, read-out: Concentration in lung): 1120 ± 250 ng/g
concentration at 4 h ([1]; rat, spleen, oral, rat, RT2 Gy × 1 f'x with regorafenib 16 mg/kg × 1 d (concurrent), read-out: Concentration in spleen): 190 ± 70 ng/g
concentration at 4 h ([1]; rat, spleen, oral, rat, RT9 Gy × 1 f'x followed by regorafenib 16 mg/kg × 1 d (sequential), read-out: Concentration in spleen): 680 ± 450 ng/g
concentration at 4 h ([1]; rat, spleen, oral, rat, RT9 Gy × 3 f'x followed by regorafenib 16 mg/kg × 3 d (sequential), read-out: Concentration in spleen): 230 ± 310 ng/g
concentration at 4 h ([1]; rat, spleen, oral, rat, RT9 Gy × 3 f'x with regorafenib 16 mg/kg × 3 d (concurrent), read-out: Concentration in spleen): 100 ± 80 ng/g
concentration at 4 h ([1]; rat, spleen, po, rat, 16 mg/kg p.o. × 1 d, no RT, read-out: Concentration in spleen): 260 ± 100 ng/g
concentration at 4 h ([1]; rat, spleen, po, rat, 16 mg/kg p.o. × 3 d, no RT, read-out: Concentration in spleen): 380 ± 220 ng/g
Concentrations of regorafenib in the brain (in words) ([1]; rat, all regimens): very limited
Compound: CNC(=O)c1cc(Oc2ccc(NC(=O)Nc3ccc(Cl)c(C(F)(F)F)c3)c(F)c2)ccn1 [regorafenib, Regorafenib]
Biodistribution in heart, liver, lung, spleen and kidneys (in words) ([1]; sequential RT2 Gy × 1 f'x and RT9 Gy × 1 f'x vs control (regorafenib × 1 d)): increased the biodistribution of regorafenib
Late apoptosis of Huh-7 cells (in words) (Huh-7 cells; RT followed by regorafenib): enhanced the late apoptosis of Huh-7 cells
Apoptosis of Huh-7 cells (in words) (Huh-7 cells; regorafenib concurrent with or following RT): caused Huh-7 cell apoptosis in a dose-dependent manner
